Experimental data as given in patent EP4792811A1, “S1PR4 REGULATOR COMPOUND FOR MUSCLE DISEASE TREATMENT AND APPLICATION THEREOF” (Shengyuan Zetong (Shanghai) Pharmaceutical Co., Ltd, priority 2023, dated 2025).

Assays:
hS1P1 = target: T1, hS1P1 (Homo sapiens, UniProt P21453); test: Tango β-arrestin recruitment assay, Tango-hS1P1-CHO; type: cell-based; conditions: selectivity table; Tango-S1PR1-CHO-K1 cells
T1 construct: expressed in transfected cells; host or cells: CHO-K1
Source text: The Tango assay detects ligand-dependent GPCR activity through the interaction between β-arrestin and GPCRs. […] The NTEV fragment and the tetracycline transactivator (tTA), an artificial transcription factor, are fused at the C-terminus of the GPCR, while the CTEV fragment is fused to human β-arrestin 2. To enhance the stability of the interaction between GPCR and β-arrestin, a short sequence from the C-terminus of the human arginine vasopressin receptor 2 (V2 tail) is inserted between the GPCR and NTEV. The V2 tail contains multiple GRK phosphorylation sites, which strengthen β-arrestin binding upon phosphorylation. The CTEV fragment carries the stabile point mutation S219P and is truncated at residue 221 to remove the autoinhibitory C-terminal tail. Meanwhile, β-arrestin 2 is truncated to lack the entire C-terminal tail (residues 383-410 deleted). This truncation confers robust stimulus-dependent receptor desensitization, thereby improving detection sensitivity compared with wild-type β-arrestin 2. The UAS reporter construct consists of upstream activating sequence (UAS) elements, a minimal CMV promoter, and a tTA-dependent luciferase reporter gene. Therefore, constructing Tango cells requires the co-transfection of the above three plasmids into host cells. Upon GPCR activation and β-arrestin recruitment, the TEV enzyme at the β-arrestin terminus cleaves tTA from the GPCR C-terminus. The released tTA initiates tTA-dependent luciferase transcription, and compound activity is ultimately determined by measuring luminescence intensity.
• 1) Tango cell line from was digested from the culture dish respectively. After cell counting, the cells were plated at a density of 10,000 cells per well with […] into a white opaque 96-well plate (add 60 µL D'Hanks to the surrounding wells), and incubated overnight (20 h) in a 5% CO2 incubator at 37°C. The cell density will reach approximately 90% the next day. • 2) After 20 h, 30 µL of serially diluted compound solution was added to each well. The control group was supplemented with 30 µL F12K complete medium. Each group had three replicate wells. • 3) Samples were collected after 20 h of drug treatment.
(All compounds were tested at a final concentration of 45 µM, with 9 serial dilutions at 5-fold intervals. 1 µM BAF-312 was used as the positive control for S1PR1, and 25 µM BAF-312 was used as the positive control for S1PR4.)
^a β-arrestin recruitment activity based on Tango-S1PR1-CHO-K1 and Tango-S1PR4-CHO-K1 cells, expressed as mean EC50 values ± SD. ^b FLIPR assays were performed using S1PR2-CHO and S1PR5-CHO cell lines, expressed as mean EC50 values ± SD. ^c β-arrestin recruitment activity based on PathHunter CHO-K1-S1PR3 cells, expressed as mean EC50 values ± SD. Data are the mean of at least two independent determinations, reported as mean ± SD (standard deviation).

S1PR4 = target: T2, S1PR4 (Homo sapiens, UniProt O95977); test: S1PR4 internalization function test in S1PR4-293T cells; type: cell-based; conditions: 1 µM, 37 °C, 1.5 hours; detected immediately, or at 5 hours or 20 hours after treatment
T2 construct: expressed in transfected cells; host or cells: 293T
T2 sequence (O95977 1-384): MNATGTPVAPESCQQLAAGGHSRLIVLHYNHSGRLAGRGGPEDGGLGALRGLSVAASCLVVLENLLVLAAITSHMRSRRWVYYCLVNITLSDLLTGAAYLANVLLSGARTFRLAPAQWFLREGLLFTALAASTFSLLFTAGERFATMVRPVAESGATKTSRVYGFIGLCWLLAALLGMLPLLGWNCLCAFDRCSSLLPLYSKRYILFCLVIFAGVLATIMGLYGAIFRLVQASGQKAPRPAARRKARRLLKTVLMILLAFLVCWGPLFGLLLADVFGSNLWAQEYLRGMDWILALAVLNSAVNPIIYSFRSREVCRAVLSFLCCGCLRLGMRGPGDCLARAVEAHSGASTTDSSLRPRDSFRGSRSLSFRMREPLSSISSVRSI
Procedure: Therefore, the recovery degree of S1PR4 after internalization caused by Compound 30 was evaluated, and the recovery effect following receptor internalization caused by Compound 30 was assessed in cells with high S1PR4 expression.

LPS-induced sepsis model = test: LPS-induced sepsis myopathy (skeletal muscle atrophy) model; type: in vivo, mice; conditions: for atrophy of the tibialis anterior muscle: 14 days of LPS treatment; for survival rate: 14 days after LPS (1 mg/kg)
Source text: Animal models of sepsis can be established by injecting exogenous toxins into animals. In this study, a sepsis model was established via intraperitoneal injection of lipopolysaccharide to observe the effects of compounds on the occurrence and development of acquired weakness. This is a widely used method for modeling sepsis.
A skeletal muscle atrophy model induced by lipopolysaccharide can simulate clinical muscle atrophy caused by sepsis.
Mice were given a single intraperitoneal injection of LPS (1 mg/kg), followed by 14 consecutive days of intraperitoneal injection of either vehicle (1% DMSO dissolved in physiological saline) or Compound 30. Body weight was measured daily. After 14 days of LPS treatment, the mice were anesthetized, and the gastrocnemius and tibialis anterior muscles were harvested.

T1 sequence (P21453 whole entry): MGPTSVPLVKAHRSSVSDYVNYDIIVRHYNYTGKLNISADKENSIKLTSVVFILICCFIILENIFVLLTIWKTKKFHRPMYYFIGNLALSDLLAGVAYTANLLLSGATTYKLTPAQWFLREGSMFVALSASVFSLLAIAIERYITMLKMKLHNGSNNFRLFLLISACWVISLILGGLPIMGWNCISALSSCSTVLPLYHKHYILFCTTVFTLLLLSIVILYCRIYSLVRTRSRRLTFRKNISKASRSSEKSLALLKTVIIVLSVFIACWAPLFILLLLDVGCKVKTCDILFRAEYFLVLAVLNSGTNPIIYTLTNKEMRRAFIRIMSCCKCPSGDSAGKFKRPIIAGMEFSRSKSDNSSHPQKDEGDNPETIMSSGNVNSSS

**Q.** What does the source list for `CCc1cc(/C(C)=N/OCc2ccc(-c3ccccc3)c(C)c2)ccc1CN1CC[C@H](C(=O)O)C1` [Compound 30]?
**A.** Emax (hS1P1): 102%; S1PR4 internalization (expression of S1PR4 receptor on the cell surface) (S1PR4): sustained internalization capacity; atrophy of the tibialis anterior muscle (LPS-induced sepsis model; high dose (Compound 30: 10mg/kg intraperitoneal once daily), 10 mg/kg): significantly inhibited; survival rate (LPS-induced sepsis model; low-dose group (0.1mg/kg intraperitoneal once daily)): 75%; atrophy of the tibialis anterior muscle (LPS-induced sepsis model; medium dose (Compound 30: 1mg/kg intraperitoneal once daily), 1 mg/kg): significantly inhibited; survival rate (LPS-induced sepsis model; medium-dose group (1mg/kg intraperitoneal once daily)): 50%
